Data reported in patent US20100286081A1, “5-AMINO-3-(2',3'-DI-O-ACETYL-BETA-D-RIBOFURANOSYL)-3H-THIAZOLO[4,5-D] PYRIMIDIN-2-OCE SALTS AND CRYSTALLINE FORMS” (Anadys Pharmaceuticals Inc., priority 2006, published 2010).

Assays:
[1] = Water sorption curve (DVS analysis at 25° C.); assay type: physicochemical; conditions: for Weight change in %: DVS analysis at 25° C.
Source text: Water Sorption Curve of 5-amino-3-(2′,3′-di-O-acetyl-beta-D-ribofuranosyl)-3H-thiazolo[4,5-d]pyrimidin-2-one Amorphous Base (FIG. 6)
Water Sorption Curve of 5-amino-3-(2′,3′-di-O-acetyl-beta-D-ribofuranosyl)-3H-thiazolo[4,5-d]pyrimidin-2-one Maleate Salt (FIG. 7)

[2] = Stability of polymorphic form; assay type: physicochemical

Hygroscopicity (in words) [1]	Weight change in % ([1]; 0-20% r.h.) [%]	Weight change in % ([1]; 0-40% r.h.) [%]	Weight change in % ([1]; 0-60% r.h.) [%]	Weight change in % ([1]; 0-80% r.h.) [%]	Weight change in % ([1]; 0-95% r.h.) [%]	Stability of polymorphic form (in words) [2]	SMILES
hygroscopic	0.50	0.86	1.55	3.07	4.68	–	CC(=O)O[C@@H]1[C@H](OC(C)=O)[C@@H](CO)O[C@H]1n1c(=O)sc2cnc(N)nc21 [5-Amino-3-(2′,3′-di-O-acetyl-beta-D-ribofuranosyl)-3H-thiazolo[4,5-d]pyrimidin-2-one]
–	0.08	0.17	0.23	0.32	0.31	–	CC(=O)O[C@@H]1[C@H](OC(C)=O)[C@@H](CO)O[C@H]1n1c(=O)sc2cnc(N)nc21.O=C(O)/C=C\C(=O)O [5-amino-3-(2′,3′-di-O-acetyl-beta-D-ribofuranosyl)-3H-thiazolo[4,5-d]pyrimidin-2-one maleate]
–	–	–	–	–	–	particularly stable polymorphic form	CC(=O)O[C@@H]1[C@H](OC(C)=O)[C@@H](CO)O[C@H]1n1c(=O)sc2cnc(N)nc21.O=C(O)/C=C\C(=O)O [Form B, 5-Amino-3-(2′,3′-di-O-acetyl-beta-D-ribofuranosyl)-3H-thiazolo[4,5-d]pyrimidin-2-one maleate]
